Source: the supplement of paper PMC11061612

Key:
[1] = compound: CCN(CCO)CCCOc1ccc2c(Nc3cc(CC(=O)Nc4cccc(F)c4)[nH]n3)ncnc2c1 [AZD2811]; details: max 1 µM
Outline: (§1)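 Cancer cell lines were seeded into 1536-well plates in 7.5 μl medium (DMEM/F12 or RPMI, 10% FBS), held 24 hours at 37°C and 5% CO2, and dosed for 72 hours with final DMSO typically 0.2%. Luminescence from CellTiter-Glo 2.0, scaled between blank-well and DMSO-well means, served as viability. The single-agent IC50 was obtained from dose-response fits with a non-linear mixed effects model, each fit being a two-parameter logistic curve.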

[2] = compound: CC(=O)c1c(C)c2cnc(Nc3ccc(N4CCNCC4)cn3)nc2n(C2CCCC2)c1=O [Palbociclib]; details: max 10 µM
Outline: as §1

[3] = compound: C[C@@H](Oc1cc(-c2cnn(C3CCNCC3)c2)cnc1N)c1c(Cl)ccc(F)c1Cl [Crizotinib]; details: max 10 µM
Outline: as §1

[4] = compound: COc1cc2ncnc(Nc3ccc(F)c(Cl)c3)c2cc1OCCCN1CCOCC1 [Gefitinib]; details: max 10 µM
Outline: as §1

[5] = compound: C[C@@H](c1ccc2nccn2c1)n1nnc2ncc(-c3cnn(C)c3)nc21 [Savolitinib]; details: max 1 µM
Outline: as §1

[6] = compound: CC1(C)CCC(CN2CCN(c3ccc(C(=O)NS(=O)(=O)c4ccc(NCC5CCOCC5)c([N+](=O)[O-])c4)c(Oc4cnc5[nH]ccc5c4)c3)CC2)=C(c2ccc(Cl)cc2)C1 [Venetoclax]; details: max 1 µM
Outline: as §1

[7] = compound: CC(=O)O[C@H]1C(=O)[C@@]2(C)[C@H]([C@H](OC(=O)c3ccccc3)[C@]3(O)C[C@H](OC(=O)[C@H](O)[C@@H](NC(=O)c4ccccc4)c4ccccc4)C(C)=C1C3(C)C)[C@]1(OC(C)=O)CO[C@@H]1C[C@@H]2O [Paclitaxel]; details: max 3 µM
Outline: as §1

[8] = compound: C=CCn1c(=O)c2cnc(Nc3ccc(N4CCN(C)CC4)cc3)nc2n1-c1cccc(C(C)(C)O)n1 [AZD1775]; details: max 3 µM
Outline: as §1

[9] = compound: CC(C)n1c(=O)n(C)c2cnc3cc(F)c(-c4ccc(OCCCN5CCCCC5)nc4)cc3c21 [AZD1390]; details: max 0.3 µM
Outline: as §1

[10] = compound: C[C@@H]1COCCN1C2=NC(=NC(=C2)C3(CC3)[S@](=N)(=O)C)C4=C5C=CNC5=NC=C4 [AZD6738]; details: max 10 µM
Outline: as §1

[11] = compound: Cc1nc(-c2cn3c(n2)-c2ccc(-c4cnn(C(C)(C)C(N)=O)c4)cc2OCC3)n(C(C)C)n1 [Taselisib]; details: max 10 µM
Outline: as §1

[12] = compound: Cc1c2c(nn1C)CSCc1cc(n(C)n1)CSc1cc(c3ccccc3c1)OCCCc1c(C(=O)O)n(C)c3c-2c(Cl)ccc13 [AZD5991]; details: max 1 µM
Outline: as §1

[13] = compound: Cc1cc2ncnn2cc1Nc1ncc2c(n1)n(C1CCOCC1)c(=O)n2C [AZD7648]; details: max 10 µM
Outline: as §1

[14] = compound: CCc1c2c(nc3ccc(O)cc13)-c1cc3c(c(=O)n1C2)COC(=O)[C@]3(O)CC [SN-38]; details: max 0.3 µM
Outline: as §1

[15] = compound: NC1(c2ccc(-c3nc4ccn5c(=O)[nH]nc5c4cc3-c3ccccc3)cc2)CCC1 [MK-2206]; details: max 10 µM
Outline: as §1

[16] = compound: O=C(c1cc(Cc2n[nH]c(=O)c3ccccc23)ccc1F)N1CCN(C(=O)C2CC2)CC1 [Olaparib]; details: max 10 µM
Outline: as §1

[17] = compound: Nc1ccn([C@@H]2O[C@H](CO)[C@@H](O)C2(F)F)c(=O)n1 [Gemcitabine]; details: max 0.3 µM
Outline: as §1

[18] = compound: CC(=O)Nc1cccc(-n2c(=O)n(C3CC3)c(=O)c3c(Nc4ccc(I)cc4F)n(C)c(=O)c(C)c32)c1 [Trametinib]; details: max 1 µM
Outline: as §1

[19] = compound: CN(CC[C@H](CSC1=CC=CC=C1)NC2=C(C=C(C=C2)S(=O)(=O)NC(=O)C3=CC=C(C=C3)N4CCC(CC4)[C@H](C5=CC=CC=C5C6=CC=C(C=C6)Cl)O)S(=O)(=O)C(F)(F)F)CCO [AZD4320]; details: max 1 µM
Outline: as §1

[20] = compound: COc1cccc(OCCCN)c1-c1cc(Nc2cnc(C#N)cn2)n[nH]1 [Prexasertib]; details: max 1 µM
Outline: as §1

[21] = compound: Cn1cnc2c(F)c(Nc3ccc(Br)cc3Cl)c(C(=O)NOCCO)cc21 [Selumetinib]; details: max 10 µM
Outline: as §1

[22] = compound: O=C(Nc1ccc2[nH]nc(-c3ccncc3)c2c1)[C@@H]1CCN(CC(=O)N2CCN(c3ccc(-c4ncccn4)cc3)CC2)C1; details: max 5 µM
Outline: as §1

[23] = compound: CS(=O)(=O)CCNCc1ccc(-c2ccc3ncnc(Nc4ccc(OCc5cccc(F)c5)c(Cl)c4)c3c2)o1 [Lapatinib]; details: max 10 µM
Outline: as §1

[24] = compound: COc1cc(Nc2ncc3c(n2)-c2ccc(Cl)cc2C(c2c(F)cccc2OC)=NC3)ccc1C(=O)O [Alisertib]; details: max 10 µM
Outline: as §1

[25] = compound: CN(C)CCCOc1ccc(-c2ccc3ncc4c(c3c2)n(C2CCOCC2)c(=O)n4C)cn1 [AZD0156]; details: max 3 µM
Outline: as §1

[26] = compound: C1CN(CCC1(C(=O)N[C@@H](CCO)C2=CC=C(C=C2)Cl)N)C3=NC=NC4=C3C=CN4 [AZD5363]; details: max 10 µM
Outline: as §1

[27] = compound: COc1nnc2ccc(N3CCC(c4ccc(OCCN5CCN(C)C(=O)[C@H]5C)cc4)CC3)nn12 [AZD5153]; details: max 1 µM
Outline: as §1

[28] = compound: C1CC(C1)(C(=O)[O-])C(=O)[O-].N.N.[Pt+2] [Carboplatin]; details: max 10 µM
Outline: as §1

[29] = compound: C[C@@H](Nc1cc(F)cc(F)c1)c1cc(C(=O)N(C)C)cc2c(=O)cc(N3CCOCC3)oc12 [AZD8186]; details: max 10 µM
Outline: as §1

[30] = compound: COc1cc([C@@H]2c3cc4c(cc3[C@@H](O[C@@H]3O[C@@H]5CO[C@@H](C)O[C@H]5[C@H](O)[C@H]3O)[C@H]3COC(=O)[C@H]23)OCO4)cc(OC)c1O [Etoposide]; details: max 10 µM
Outline: as §1

[31] = compound: COc1cccc2c1C(=O)c1c(O)c3c(c(O)c1C2=O)C[C@@](O)(C(=O)CO)C[C@@H]3O[C@H]1C[C@H](N)[C@H](O)[C@H](C)O1 [Doxorubicin]; details: max 1 µM
Outline: as §1

[32] = compound: N#Cc1cnc(Nc2cc(NC[C@H]3CNCCO3)c(C(F)(F)F)cn2)cn1 [SRA737]; details: max 10 µM
Outline: as §1

[33] = compound: CC1=CN2[C@@H](C1)C=NC3=CC(=C(C=C3C2=O)OC)OCCCCCOC4=C(C=C5C(=C4)N=C[C@@H]6CC(=CN6C5=O)C)OC [SG3199]; details: max 0.001 µM
Outline: as §1

[34] = compound: CC1=C(C(=CC=C1)Cl)NC(=O)C2=CN=C(S2)NC3=CC(=NC(=N3)C)N4CCN(CC4)CCO [Dasatinib]; details: max 2 µM
Outline: as §1

[35] = compound: O=c1[nH]cc(F)c(=O)[nH]1 [5-Fluorouracil]; details: max 20 µM
Outline: as §1

Cell Line | IC50, cell viability 72 h [1] | IC50, cell viability 72 h [2] | IC50, cell viability 72 h [3] | IC50, cell viability 72 h [4] | IC50, cell viability 72 h [5] | IC50, cell viability 72 h [6] | IC50, cell viability 72 h [7] | IC50, cell viability 72 h [8] | IC50, cell viability 72 h [9] | IC50, cell viability 72 h [10] | IC50, cell viability 72 h [11] | IC50, cell viability 72 h [12] | IC50, cell viability 72 h [13] | IC50, cell viability 72 h [14] | IC50, cell viability 72 h [15] | IC50, cell viability 72 h [16] | IC50, cell viability 72 h [17] | IC50, cell viability 72 h [18] | IC50, cell viability 72 h [19] | IC50, cell viability 72 h [20] | IC50, cell viability 72 h [21] | IC50, cell viability 72 h [22] | IC50, cell viability 72 h [23] | IC50, cell viability 72 h [24] | IC50, cell viability 72 h [25] | IC50, cell viability 72 h [26] | IC50, cell viability 72 h [27] | IC50, cell viability 72 h [28] | IC50, cell viability 72 h [29] | IC50, cell viability 72 h [30] | IC50, cell viability 72 h [31] | IC50, cell viability 72 h [32] | IC50, cell viability 72 h [33] | IC50, cell viability 72 h [34] | IC50, cell viability 72 h [35]
CHL-1 (Melanoma) | > 1000 nM | > 10000 nM | > 10000 nM | > 10000 nM | > 1000 nM | > 1000 nM | 19.2 nM | 1680 nM | > 300 nM | 2730 nM | 8260 nM | > 1000 nM | > 10000 nM | 143 nM | > 10000 nM | > 10000 nM | 218 nM | > 1000 nM | > 1000 nM | 76.8 nM | > 10000 nM | > 5000 nM | 9960 nM | > 10000 nM | > 3000 nM | > 10000 nM | 594 nM | > 10000 nM | > 10000 nM | 8950 nM | > 1000 nM | > 10000 nM | > 1 nM | > 2000 nM | > 20000 nM
COLO-684 (Endometrial Carcinoma) | > 1000 nM | > 10000 nM | > 10000 nM | > 10000 nM | > 1000 nM | > 1000 nM | 558 nM | 701 nM | > 300 nM | 4440 nM | 4200 nM | > 1000 nM | > 10000 nM | 228 nM | 7210 nM | > 10000 nM | 134 nM | > 1000 nM | > 1000 nM | 19.9 nM | > 10000 nM | > 5000 nM | > 10000 nM | > 10000 nM | > 3000 nM | 4510 nM | 578 nM | > 10000 nM | 8930 nM | > 10000 nM | > 1000 nM | 5200 nM | > 1 nM | > 2000 nM | > 20000 nM
EB-3 (Burkitt's Lymphoma) | > 1000 nM | > 10000 nM | 7290 nM | > 10000 nM | > 1000 nM | > 1000 nM | 88.7 nM | 555 nM | > 300 nM | 7040 nM | > 10000 nM | > 1000 nM | > 10000 nM | 52.9 nM | > 10000 nM | > 10000 nM | > 300 nM | > 1000 nM | > 1000 nM | 86.4 nM | > 10000 nM | > 5000 nM | > 10000 nM | > 10000 nM | > 3000 nM | > 10000 nM | 128 nM | > 10000 nM | > 10000 nM | 1020 nM | 194 nM | > 10000 nM | > 1 nM | > 2000 nM | > 20000 nM
NCI-H810 (Non-Small Cell Lung Carcinoma) | 330 nM | > 10000 nM | > 10000 nM | > 10000 nM | > 1000 nM | > 1000 nM | 282 nM | 437 nM | > 300 nM | > 10000 nM | > 10000 nM | > 1000 nM | > 10000 nM | 202 nM | > 10000 nM | > 10000 nM | > 300 nM | > 1000 nM | > 1000 nM | 52.8 nM | > 10000 nM | > 5000 nM | > 10000 nM | 1380 nM | > 3000 nM | > 10000 nM | 442 nM | > 10000 nM | > 10000 nM | > 10000 nM | 880 nM | > 10000 nM | > 1 nM | > 2000 nM | > 20000 nM
KYSE-70 (Esophageal Squamous Cell Carcinoma) | > 1000 nM | > 10000 nM | > 10000 nM | > 10000 nM | > 1000 nM | > 1000 nM | > 3000 nM | > 3000 nM | > 300 nM | > 10000 nM | 4070 nM | > 1000 nM | > 10000 nM | > 300 nM | > 10000 nM | > 10000 nM | > 300 nM | > 1000 nM | > 1000 nM | 241 nM | > 10000 nM | > 5000 nM | > 10000 nM | > 10000 nM | > 3000 nM | > 10000 nM | > 1000 nM | > 10000 nM | > 10000 nM | > 10000 nM | > 1000 nM | > 10000 nM | > 1 nM | > 2000 nM | > 20000 nM
